Experimental data: US20030215462A1, “Use of UGT inhibitors to increase bioavailability” (priority 2001, published 2003)
“And” between values parts separate entries of the source, which are not always exact repeats. Equal values may be shown once. One block for each compound: values may come before it.

Assays:
[1] = healthy volunteers, concomitant diflunisal; cited from earlier work
[2] = system: UGT enzymes of human liver microsomes; assay: Inhibition of zidovudine glucuronidation in human liver microsomes; format: biochemical
Description: Compounds were eluted using a binary solvent gradient system where solvent A was dilute phosphoric acid (pH 3) and solvent B was acetonitrile.
Standardized incubations utilized 500 μM zidovudine substrate, 1 mg/ml microsomal protein, 5 mM UDPGA and a 30 min incubation time. […] Int.

UGT1A7 = UGT1A7 (Homo sapiens, UniProt Q9HAW7); assay: Substrate glucuronidation by recombinant UGT1A7; format: in vitro ADME; details: UGT1A7 Bacculosomes 250 μg/ml; 7-HFC 50 μM
UGT1A1 = biological target: T1, UGT1A1 (Homo sapiens, UniProt P22309); assay: Substrate glucuronidation by recombinant UGT1A1; details: for 7-HFC glucuronidation rate: 7-HFC 50 μM
T1 sequence (P22309 26-533): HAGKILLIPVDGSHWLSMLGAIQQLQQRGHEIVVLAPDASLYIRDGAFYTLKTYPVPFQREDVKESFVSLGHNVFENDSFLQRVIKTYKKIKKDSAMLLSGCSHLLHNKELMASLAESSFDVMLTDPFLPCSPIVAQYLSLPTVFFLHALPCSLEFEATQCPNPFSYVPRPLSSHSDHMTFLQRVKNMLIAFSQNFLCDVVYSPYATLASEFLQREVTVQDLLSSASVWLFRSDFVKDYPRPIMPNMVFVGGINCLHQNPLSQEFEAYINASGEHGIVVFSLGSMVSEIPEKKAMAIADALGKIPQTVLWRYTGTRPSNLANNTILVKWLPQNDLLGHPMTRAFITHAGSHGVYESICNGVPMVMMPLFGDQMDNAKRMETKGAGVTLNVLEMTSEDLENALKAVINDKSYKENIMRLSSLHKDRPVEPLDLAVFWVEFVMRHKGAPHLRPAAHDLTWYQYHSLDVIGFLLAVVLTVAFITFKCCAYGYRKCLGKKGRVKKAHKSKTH

UGT1A6 = biological target: T2, UGT1A6 (Homo sapiens, UniProt P19224); assay: Substrate glucuronidation by recombinant UGT1A6; details: for 7-HFC glucuronidation rate: 7-HFC 50 μM
T2 sequence (P19224 27-532): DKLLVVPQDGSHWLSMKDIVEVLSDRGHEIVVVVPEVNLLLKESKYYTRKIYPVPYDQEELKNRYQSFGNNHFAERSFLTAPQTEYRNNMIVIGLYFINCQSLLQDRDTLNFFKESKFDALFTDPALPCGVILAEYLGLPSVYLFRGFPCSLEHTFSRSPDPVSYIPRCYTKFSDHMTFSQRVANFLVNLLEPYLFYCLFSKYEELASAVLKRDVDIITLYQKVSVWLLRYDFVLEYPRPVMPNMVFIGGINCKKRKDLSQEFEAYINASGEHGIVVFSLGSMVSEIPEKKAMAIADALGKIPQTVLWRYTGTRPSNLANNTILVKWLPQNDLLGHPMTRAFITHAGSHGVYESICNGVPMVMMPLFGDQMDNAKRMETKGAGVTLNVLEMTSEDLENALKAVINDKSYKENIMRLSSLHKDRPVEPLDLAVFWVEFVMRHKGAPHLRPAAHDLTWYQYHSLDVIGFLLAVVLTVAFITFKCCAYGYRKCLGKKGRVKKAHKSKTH

UGT1A10 [3] = biological target: T3, UGT1A10 (Homo sapiens, UniProt Q9HAW8); assay: Substrate glucuronidation by recombinant UGT1A10; details: 7-HFC 50 μM
T3 sequence (Q9HAW8 26-530): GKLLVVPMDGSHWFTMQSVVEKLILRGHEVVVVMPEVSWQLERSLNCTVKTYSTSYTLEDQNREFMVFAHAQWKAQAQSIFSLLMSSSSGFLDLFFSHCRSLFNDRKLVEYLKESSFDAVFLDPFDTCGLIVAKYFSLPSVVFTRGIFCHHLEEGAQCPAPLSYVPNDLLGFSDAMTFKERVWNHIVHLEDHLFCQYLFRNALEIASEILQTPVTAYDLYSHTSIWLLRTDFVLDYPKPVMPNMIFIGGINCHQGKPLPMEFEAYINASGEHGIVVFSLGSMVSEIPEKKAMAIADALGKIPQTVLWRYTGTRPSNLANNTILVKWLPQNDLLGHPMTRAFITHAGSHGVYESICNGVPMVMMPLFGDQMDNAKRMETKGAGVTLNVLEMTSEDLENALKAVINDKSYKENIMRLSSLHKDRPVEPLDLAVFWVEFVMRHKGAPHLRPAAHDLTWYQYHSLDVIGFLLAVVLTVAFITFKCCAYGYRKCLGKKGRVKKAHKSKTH

[4] = system: UGT enzymes of pooled human jejunum microsomes; assay: Inhibition of zidovudine glucuronidation in pooled human jejunum microsomes; format: biochemical; details: inhibitor 50 μM
Description: Increasing the microsomal protein concentration to 1 mg/ml and extending the incubation time to 60 min provided meaningful metabolite levels for inhibition studies.

UGT1A4 = UGT1A4 (Homo sapiens, UniProt P22310)
UGT1A10 [5] = biological target: T3, UGT1A10
UGT2B7 = biological target: T4, UGT2B7 (Homo sapiens, UniProt P16662); details: 30 min, 100 μM, pH 7.5
T4 sequence (P16662 24-529): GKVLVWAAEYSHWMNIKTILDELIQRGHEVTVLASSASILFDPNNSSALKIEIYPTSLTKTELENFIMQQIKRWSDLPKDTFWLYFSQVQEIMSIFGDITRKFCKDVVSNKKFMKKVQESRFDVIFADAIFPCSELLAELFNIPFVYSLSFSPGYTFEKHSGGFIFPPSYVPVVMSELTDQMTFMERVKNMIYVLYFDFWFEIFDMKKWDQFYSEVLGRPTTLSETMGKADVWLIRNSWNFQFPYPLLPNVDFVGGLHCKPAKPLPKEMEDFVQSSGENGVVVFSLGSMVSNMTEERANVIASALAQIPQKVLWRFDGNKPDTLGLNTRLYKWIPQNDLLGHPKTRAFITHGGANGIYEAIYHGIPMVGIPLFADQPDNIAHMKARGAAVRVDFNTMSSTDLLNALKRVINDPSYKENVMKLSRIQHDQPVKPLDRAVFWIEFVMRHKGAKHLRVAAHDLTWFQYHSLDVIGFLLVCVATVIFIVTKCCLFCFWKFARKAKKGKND

[6] = humans; cited from earlier work

Chain of UGT1A4 (P22310 29-534): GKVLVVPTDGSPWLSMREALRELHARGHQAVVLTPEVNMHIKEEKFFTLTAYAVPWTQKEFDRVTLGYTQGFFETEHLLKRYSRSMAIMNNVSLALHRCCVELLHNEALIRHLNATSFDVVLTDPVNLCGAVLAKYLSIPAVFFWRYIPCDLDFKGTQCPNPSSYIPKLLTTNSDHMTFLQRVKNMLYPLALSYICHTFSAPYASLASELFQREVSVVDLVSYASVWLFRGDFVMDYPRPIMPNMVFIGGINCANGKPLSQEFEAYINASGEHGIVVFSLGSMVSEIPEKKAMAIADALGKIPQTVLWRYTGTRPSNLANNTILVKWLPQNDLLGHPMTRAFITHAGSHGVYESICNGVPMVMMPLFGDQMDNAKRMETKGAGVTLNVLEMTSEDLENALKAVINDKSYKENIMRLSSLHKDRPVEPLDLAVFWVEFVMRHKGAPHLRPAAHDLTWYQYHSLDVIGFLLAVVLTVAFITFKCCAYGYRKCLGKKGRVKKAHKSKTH
Chain of UGT1A7 (Q9HAW7 26-530): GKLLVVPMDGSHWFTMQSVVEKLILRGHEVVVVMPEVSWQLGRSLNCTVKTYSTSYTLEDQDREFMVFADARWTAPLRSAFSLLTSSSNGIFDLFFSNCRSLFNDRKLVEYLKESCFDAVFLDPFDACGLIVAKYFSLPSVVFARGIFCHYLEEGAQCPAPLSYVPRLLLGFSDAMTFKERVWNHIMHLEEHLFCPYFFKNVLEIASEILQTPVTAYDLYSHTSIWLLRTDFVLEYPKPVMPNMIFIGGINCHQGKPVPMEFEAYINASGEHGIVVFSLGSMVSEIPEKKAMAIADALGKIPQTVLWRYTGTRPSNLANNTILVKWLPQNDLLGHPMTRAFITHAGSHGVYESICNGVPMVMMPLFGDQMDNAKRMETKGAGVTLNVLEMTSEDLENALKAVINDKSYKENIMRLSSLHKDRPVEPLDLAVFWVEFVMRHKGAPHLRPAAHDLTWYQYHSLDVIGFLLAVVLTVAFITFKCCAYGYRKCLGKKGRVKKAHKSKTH

Compound: O=C(O)c1cc(-c2ccc(F)cc2F)ccc1O [Diflunisal, reference compound]
decrease in indomethacin clearance [1]: 70%

Compound: O=c1c(O)c(-c2ccc(O)c(O)c2)oc2cc(O)cc(O)c12 [Quercetin]
inhibition of zidovudine metabolism, in words [2]: ineffective

More lines, main results first:

7-HFC glucuronidation rate (UGT1A7): 564 ± 9 pmol/min/mg protein | 7-HFC glucuronidation rate in Panvera Bacculosomes as % of Gentest Supersomes (UGT1A1; UGT1A1): 42% | 7-HFC glucuronidation rate (UGT1A1; UGT1A1 Bacculosomes 250 μg/ml): 346 ± 12 pmol/min/mg protein | 7-HFC glucuronidation rate in Panvera Bacculosomes as % of Gentest Supersomes (UGT1A6; UGT1A6): 31% | 7-HFC glucuronidation rate (UGT1A6; UGT1A6 Bacculosomes 250 μg/ml): 1528 ± 34 pmol/min/mg protein | 7-HFC glucuronidation rate (UGT1A6; UGT1A6 Supersomes 250 μg/ml): 4904 ± 368 pmol/min/mg protein | 7-HFC glucuronidation rate (UGT1A10 [3]; UGT1A10 Bacculosomes 250 μg/ml): 553 ± 40 pmol/min/mg protein | 7-HFC glucuronidation rate (UGT1A10 [3]; UGT1A10 Supersomes 250 μg/ml): 460 ± 2 pmol/min/mg protein
Compound: O=c1cc(C(F)(F)F)c2ccc(O)cc2o1 [7-HFC, 7-hydroxy-4-(trifluoromethyl)coumarin]
7-HFC glucuronidation rate (UGT1A1; UGT1A1 Supersomes 250 μg/ml): 816 ± 70 pmol/min/mg protein and 929 ± 7 pmol/min/mg protein

residual metabolism (percentage of control), zidovudine [4]: 42 (3) %
Compound: CC/C(=C(/CC)c1ccc(O)cc1)c1ccc(O)cc1 [Diethylstilbestrol, reference compound]

labetalol metabolism, in words (UGT1A4): No detectable metabolism was observed | labetalol metabolism, in words (UGT1A10 [5]): No detectable metabolism was observed | LG1/LG2 (UGT2B7): 12 | labetalol metabolite LG1, peak area normalized to internal standard (UGT2B7): 993 (52) | labetalol metabolite LG2, peak area normalized to internal standard (UGT2B7): 81 (3)
Compound: CC(CCc1ccccc1)NCC(O)c1ccc(O)c(C(N)=O)c1 (stereo not drawn) [Labetalol, labetalol]
absolute oral bioavailability [6]: 25-30%
